Experimental data as given in ChEMBL document CHEMBL3797144, “2,8-Diazaspiro[4.5]decan-8-yl)pyrimidin-4-amine potent CCR4 antagonists capable of inducing receptor endocytosis” (Eur J Med Chem, 2016).
In brackets after ≈: the same amount, converted by molar mass.

How the values were obtained:
[1] = molecular target: T1, C-C chemokine receptor type 4 (Homo sapiens, UniProt P51679); experiment: Antagonist activity at CCR4 in human PBMC assessed as inhibition of actin polymerization by flow cytometry; conditions: read-out: pA2 (converted)
T1 sequence (P51679 whole entry): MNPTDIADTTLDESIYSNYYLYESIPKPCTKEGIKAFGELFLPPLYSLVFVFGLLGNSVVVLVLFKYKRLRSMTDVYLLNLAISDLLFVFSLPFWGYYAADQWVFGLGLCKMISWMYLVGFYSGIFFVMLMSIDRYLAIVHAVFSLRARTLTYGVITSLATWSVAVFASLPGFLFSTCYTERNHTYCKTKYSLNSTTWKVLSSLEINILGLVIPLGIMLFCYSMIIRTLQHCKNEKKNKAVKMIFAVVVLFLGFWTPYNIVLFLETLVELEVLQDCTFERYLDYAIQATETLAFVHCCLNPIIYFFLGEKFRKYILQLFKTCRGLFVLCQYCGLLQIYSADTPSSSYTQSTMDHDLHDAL

[2] = Kinetic solubility of the compound by chemiluminescent nitrogen detection assay; type: physicochemical; conditions: read-out: Kinetic_solubility
[3] = molecular target: T1, C-C chemokine receptor type 4; experiment: Antagonist activity at human CCR4 expressed in CHO cells by [35S]GTPgammaS assay; type: functional, cell-based
[4] = molecular target: T1, C-C chemokine receptor type 4; experiment: Displacement of [125I]-TARC from human recombinant CCR4 expressed in CHO cell membranes by scintillation counting method
[5] = molecular target: T1, C-C chemokine receptor type 4; experiment: (§1) Induction of CCR4 internalisation in human HUT78 cells after 30 mins by flow cytometry; type: functional, cell-based
[6] = molecular target: T2, C-C chemokine receptor type 4 (Homo sapiens) (UniProt P51679); experiment: as §1; type: functional, cell-based
T2 sequence (whole entry): T1 sequence (P51679 whole entry)

[7] = molecular target: T2, C-C chemokine receptor type 4 (Homo sapiens); experiment: Induction of CCR4 internalisation in human HUT78 cells at 10 nM after 30 mins by flow cytometry; type: functional, cell-based
[8] = Half life in rat at 1 mg/kg; type: ADME, organism-based; conditions: in vivo
Rattus norvegicus = experiment: Clearance in rat at 1 mg/kg relative to liver blood flow; type: ADME, organism-based; conditions: in vivo
[9] = Volume of distribution in rat at 1 mg/kg; type: ADME, organism-based; conditions: in vivo
[10] = Clearance in rat at 1 mg/kg; type: ADME, organism-based; conditions: in vivo
[11] = Plasma protein binding in human; type: ADME, cell-free; conditions: read-out: PPB (converted)

A Kb [1] of 174 nM, a solubility kinetic [2] of 140 µg/mL (≈ 312 µM) and an IC50 [3] of 7.94 nM were found for `O=C([C@H]1CCCCN1)N1CCN(c2nccc(NCc3ccc(Cl)cc3Cl)n2)CC1` in this work. The Ki [4] was 2.51 nM.

An EC50 [5] of 398 nM was found for `COc1cc2nc(N3CCC(N(C)C(=O)[C@H]4CCCN4)CC3)nc(Nc3ccc(Cl)cc3F)c2cc1OC` in this work.

A solubility kinetic [2] of 3 µg/mL (≈ 5.97 µM) and a Ki [4] of 631 nM were found for `O=C(C1CCCCC1)N1CCC2(CCN(c3nccc(NCc4ccc(Cl)cc4Cl)n3)CC2)C1` in this work.

A solubility kinetic [2] of 170 µg/mL (≈ 338 µM) and a Ki [4] of 20 nM were found for `O=C([C@@H]1CCCCN1)N1CCC2(CCN(c3nccc(NCc4ccc(Cl)cc4Cl)n3)CC2)C1` in this work.

A solubility kinetic [2] of 144 µg/mL and a Ki [4] of 316 nM were found for `Cl.Cl.Clc1ccc(CNc2ccnc(N3CCC4(CCNC4)CC3)n2)c(Cl)c1` in this work.

A solubility kinetic [2] of 138 µg/mL and a Ki [4] of 126 nM were found for `CNCC(=O)N1CCC2(CCN(c3nccc(NCc4ccc(Cl)cc4Cl)n3)CC2)C1.O=C(O)C(F)(F)F.O=C(O)C(F)(F)F` in this work.

A solubility kinetic [2] of 172 µg/mL (≈ 342 µM) and a Ki [4] of 25.1 nM were found for `O=C([C@H]1CCCCN1)N1CCC2(CCN(c3nccc(NCc4ccc(Cl)cc4Cl)n3)CC2)C1` in this work.

A solubility kinetic [2] of 56 µg/mL (≈ 118 µM), a Ki [4] of 3.98 nM and an EC50 [5] of 12.6 nM were found for `Clc1ccc(CNc2ccnc(N3CCC4(CCN(C[C@@H]5CCCN5)C4)CC3)n2)c(Cl)c1` in this work. For the same molecule, the Activity [6] was 56%.

A solubility kinetic [2] of 17 µg/mL (≈ 34.2 µM) and a Ki [4] of 100 nM were found for `O=C(c1ccccn1)N1CCC2(CCN(c3nccc(NCc4ccc(Cl)cc4Cl)n3)CC2)C1` in this work.

A solubility kinetic [2] of 180 µg/mL (≈ 368 µM) and a Ki [4] of 15.8 nM were found for `O=C([C@H]1CCCN1)N1CCC2(CCN(c3nccc(NCc4ccc(Cl)cc4Cl)n3)CC2)C1` in this work.

A solubility kinetic [2] of 16 µg/mL (≈ 33.7 µM), a Ki [4] of 5.01 nM and an EC50 [5] of 6.31 nM were found for `Clc1ccc(CNc2ccnc(N3CCC4(CCN(C[C@H]5CCCN5)C4)CC3)n2)c(Cl)c1` in this work. For the same molecule, the Activity [6] was 64%.

A solubility kinetic [2] of 165 µg/mL (≈ 337 µM) and a Ki [4] of 100 nM were found for `O=C([C@@H]1CCCN1)N1CCC2(CCN(c3nccc(NCc4ccc(Cl)cc4Cl)n3)CC2)C1` in this work.

An Activity [7] of 50% was found for `C[N+]1(C2CCN(c3ncc(-c4ccc(F)cc4F)c(NCc4ccc(F)cc4F)n3)CC2)CCCCC1` in this work.

A solubility kinetic [2] of 182 µg/mL (≈ 372 µM) and a Ki [4] of 2.51 nM were found for `Clc1ccc(CNc2ccnc(N3CCC4(CCN(CC5CCCCN5)C4)CC3)n2)c(Cl)c1` (racemic) in this work.

A Kb [1] of 1000 nM, a solubility kinetic [2] of 141 µg/mL (≈ 288 µM) and an IC50 [3] of 7.94 nM were found for `CN(Cc1ccc(Cl)cc1Cl)c1ccnc(N2CCC3(CCN(CC4CCCN4)C3)CC2)n1` (racemic) in this work. It also gave a Ki [4] of 1 nM, an EC50 [5] of 158 nM and an Activity [6] of 74%.

A solubility kinetic [2] of 79 µg/mL (≈ 161 µM) and a Ki [4] of 25.1 nM were found for `O=C(C1CCCN1)N1CCC2(CCN(c3nccc(NCc4ccc(Cl)cc4Cl)n3)CC2)C1` (racemic) in this work.

A solubility kinetic [2] of 339 µg/mL and a Ki [4] of 50.1 nM were found for `O=C(C1CCNC1)N1CCC2(CCN(c3nccc(NCc4ccc(Cl)cc4Cl)n3)CC2)C1.O=C(O)C(F)(F)F` (racemic) in this work.

A solubility kinetic [2] of 186 µg/mL (≈ 369 µM) and a Ki [4] of 50.1 nM were found for `O=C(C1CCCNC1)N1CCC2(CCN(c3nccc(NCc4ccc(Cl)cc4Cl)n3)CC2)C1` (racemic) in this work.

A Kb [1] of 200 nM, a solubility kinetic [2] of 270 µg/mL (≈ 568 µM) and a half-life [8] of 240 min were found for `Clc1ccc(CNc2ccnc(N3CCC4(CCN(CC5CCCN5)C4)CC3)n2)c(Cl)c1` (racemic) in this work. The IC50 [3] was 7.94 nM, the CL (Rattus norvegicus) was 18% and the Ki [4] was 1.58 nM. It also gave a Vd [9] of 5 L/kg, a clearance [10] of 15 mL/min/kg and a fraction unbound [11] of 0.068.

A solubility kinetic [2] of 190 µg/mL (≈ 377 µM) and a Ki [4] of 25.1 nM were found for `CN(Cc1ccc(Cl)cc1Cl)c1ccnc(N2CCC3(CCN(C(=O)C4CCCN4)C3)CC2)n1` (racemic) in this work.

A solubility kinetic [2] of 160 µg/mL (≈ 362 µM), an IC50 [3] of 7.94 nM and a Ki [4] of 3.16 nM were found for `Fc1ccc(CNc2ccnc(N3CCC4(CCN(CC5CCCN5)C4)CC3)n2)c(F)c1` (racemic) in this work. For the same molecule, the EC50 [5] was 15.8 nM and the Activity [6] was 62%.

A solubility kinetic [2] of 175 µg/mL (≈ 383 µM) and a Ki [4] of 25.1 nM were found for `O=C(C1CCCN1)N1CCC2(CCN(c3nccc(NCc4ccc(F)cc4F)n3)CC2)C1` (racemic) in this work.

A solubility kinetic [2] of 233 µg/mL (≈ 461 µM) was found for `O=C(C1COCCN1)N1CCC2(CCN(c3nccc(NCc4ccc(Cl)cc4Cl)n3)CC2)C1` (racemic) in this work.
